This is an account of results in patent US20250262186A1 (SANOFI, priority 2022, published 2025).

SMILES strings stand for the structures.

The first test deals with T1, ERα (Homo sapiens, UniProt P03372).
T1 construct: made using a breast cancer cell ERα in cell western assay; host or cells: MCF7
T1 sequence (P03372 1-595): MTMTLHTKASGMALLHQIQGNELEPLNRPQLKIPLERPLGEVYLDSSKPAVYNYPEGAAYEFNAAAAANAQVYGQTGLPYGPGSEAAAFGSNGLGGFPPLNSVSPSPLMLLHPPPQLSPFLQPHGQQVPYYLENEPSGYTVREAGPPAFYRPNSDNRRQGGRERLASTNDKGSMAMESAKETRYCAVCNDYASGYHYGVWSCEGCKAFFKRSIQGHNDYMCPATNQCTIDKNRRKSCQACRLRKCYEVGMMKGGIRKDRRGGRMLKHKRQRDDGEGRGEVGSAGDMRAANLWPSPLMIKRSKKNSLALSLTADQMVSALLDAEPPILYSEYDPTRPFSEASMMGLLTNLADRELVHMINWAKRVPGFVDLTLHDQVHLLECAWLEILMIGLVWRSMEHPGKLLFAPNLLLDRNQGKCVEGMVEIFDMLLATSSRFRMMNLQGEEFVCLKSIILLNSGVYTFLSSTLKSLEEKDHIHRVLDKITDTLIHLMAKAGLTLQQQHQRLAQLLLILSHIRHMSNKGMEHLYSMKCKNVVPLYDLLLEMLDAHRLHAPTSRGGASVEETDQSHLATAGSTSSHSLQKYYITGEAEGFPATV
The test can be described thus: Estrogen receptor degradation activity: breast cancer cell ERα in cell western assay in MCF7 cells. The test is classed as cell-based. To be noted: 0.3 μM, 4 hours, relative to fulvestrant 0.1 μM positive control. How it is done: Said test involves measuring the in vitro degradation activity of the compounds of the Table 1a.
The measurements of the degradation activities were made using a breast cancer cell ERα in cell western assay as described hereunder.
MCF7 cells (ATCC) were seeded in 384 wells microplate (collagen coated) at a concentration of 10000 cells/30 μL per well in red phenol free MEM alpha medium (invitrogen) containing 5% charcoal dextran striped FBS. The following day, 9 points serial 1:5 dilution of each compound was added to the cells in 2.5 μL at final concentrations ranging from 0.3-0.0000018 μM (in table 2), or 0.1 μM for fulvestrant (using as positive control). At 4 hours post compound addition the cells were fixed by adding 25 μL of formalin (final concentration 5% formalin containing 0.1% triton) for 10 minutes at room temperature and then washed twice with PBS. Then, 50 μL of LI-COR blocking buffer containing 0.1% Triton was added to plate for 30 minutes at room temperature. LI-COR blocking buffer was removed and cells were incubated overnight at cold room with 50 μL anti-ER rabbit monoclonal antibody (Thermo scientific MA1-39540) diluted at 1:1000 in LI-COR blocking buffer containing 0.1% tween-20. Wells which were treated with blocking buffer but no antibody were used as background control. Wells were washed twice with PBS (0.1% tween-20) and incubated at 37° C. for 60 minutes in LI-COR (0.1% tween-20) containing goat anti-rabbit antibody Alexa 488 (1:1000) and Syto-64 a DNA dye (2 μM final concentration). Cells were then washed 3 times in PBS and scanned in ACUMEN explorer (TTP-Labtech). Integrated intensities in the green fluorescence and red fluorescence were measured to determine the levels of ERα and DNA respectively.
The degradation activity with respect to estrogen receptors in this test is given by the concentration which degrades 50% of the estrogen receptor (or IC50) in nM.
The % of ERα levels decrease were determined as follows: % inhibition=100*(1−(sample−fulvestrant: DMSO−fulvestrant)).
In the case of `O=C(O)c1ccc2c(c1)CCCC(c1cccc(F)c1Cl)=C2c1cccc(O[C@@H]2CCN(CCCF)C2)c1` [Compound 9, (R)-8-(2-chloro-3-fluorophenyl)-9-(3-((1-(3-fluoropropyl)pyrrolidin-3-yl)oxy)phenyl)-6,7-dihydro-5H-benzo[7]annulene-3-carboxylic acid], the “% Degradation At 0.3 μM” value turned out to be 90%.
Same read-out and setting: in the case of `Cc1c(O[C@@H]2CCN(CCCF)C2)cccc1C1=C(c2ccccc2)CCCc2cc(C(=O)O)ccc21` [Compound 15, (R)-9-(3-((1-(3-fluoropropyl)pyrrolidin-3-yl)oxy)-2-methylphenyl)-8-phenyl-6,7-dihydro-5H-benzo[7]annulene-3-carboxylic acid] it was 80%; in that of `O=C(O)c1ccc2c(c1)CCCC(C1CCCC1)=C2c1cccc(O[C@@H]2CCN(CCCF)C2)c1` [Compound 14, (R)-8-cyclopentyl-9-(3-((1-(3-fluoropropyl)pyrrolidin-3-yl)oxy)phenyl)-6,7-dihydro-5H-benzo[7]annulene-3-carboxylic acid], 77%; in that of `O=C(O)c1ccc2c(c1)CCCC(c1ccccc1Cl)=C2c1cccc(O[C@@H]2CCN(CCCF)C2)c1` [Compound 3, (R)-8-(2-chlorophenyl)-9-(3-((1-(3-fluoropropyl)pyrrolidin-3-yl)oxy)phenyl)-6,7-dihydro-5H-benzo[7]annulene-3-carboxylic acid], 84%.
The same measure, in the same setting: in the case of `O=C(O)c1ccc2c(c1)CCCC(c1ccccc1)=C2c1cccc(O[C@@H]2CCN(CCCF)C2)c1` [Compound 2, (R)-9-(3-((1-(3-fluoropropyl)pyrrolidin-3-yl)oxy)phenyl)-8-phenyl-6,7-dihydro-5H-benzo[7]annulene-3-carboxylic acid] it was 81%; in that of `O=C(O)c1ccc2c(c1)CCCC(c1ccc(Cl)cc1Cl)=C2c1cccc(O[C@@H]2CCN(CCCF)C2)c1` [Compound 1, (R)-8-(2,4-dichlorophenyl)-9-(3-((1-(3-fluoropropyl)pyrrolidin-3-yl)oxy)phenyl)-6,7-dihydro-5H-benzo[7]annulene-3-carboxylic acid], 85%.
With `Cl.O=C(O)c1ccc2c(c1)CCCC(c1ccc(Cl)cc1Cl)=C2c1cccc(N[C@@H]2CCN(CCCF)C2)c1` [Compound 33, (R)-8-(2,4-dichlorophenyl)-9-(3-((1-(3-fluoropropyl)pyrrolidin-3-yl)amino)phenyl)-6,7-dihydro-5H-benzo[7]annulene-3-carboxylic acid hydrochloride], the “% Degradation At 0.3 μM” value is on record as 79%.
`Cc1c(O[C@@H]2CCN(CCCF)C2)cccc1C1=C(c2ccc(Cl)cc2Cl)CCCc2cc(C(=O)O)ccc21` [Compound 17, (R)-8-(2,4-dichlorophenyl)-9-(3-((1-(3-fluoropropyl)pyrrolidin-3-yl)oxy)-2-methylphenyl)-6,7-dihydro-5H-benzo[7]annulene-3-carboxylic acid]: the “% Degradation At 0.3 μM” value is given as 87%.
With `O=C(O)c1ccc2c(c1)CCCC(c1ccc(Cl)cc1Cl)=C2c1cccc(CC2CN(CCCF)C2)c1` [Compound 31, 8-(2,4-dichlorophenyl)-9-(3-((1-(3-fluoropropyl)azetidin-3-yl)methyl)phenyl)-6,7-dihydro-5H-benzo[7]annulene-3-carboxylic acid], the “% Degradation At 0.3 μM” value was found to be 58%.
Regarding `O=C(O)c1ccc2c(c1)CCCC(c1ccccc1)=C2c1cccc(O[C@H]2CCN(CCCF)C2)c1` [Compound 2a, (S)-9-(3-((1-(3-fluoropropyl)pyrrolidin-3-yl)oxy)phenyl)-8-phenyl-6,7-dihydro-5H-benzo[7]annulene-3-carboxylic acid], the “% Degradation At 0.3 μM” value was “Inactive”.
Consider `FCCCN1CC[C@@H](Oc2cccc(C3=C(c4ccc(Cl)cc4Cl)CCCc4ccccc43)c2)C1` [Compound 38, (R)-3-(3-(8-(2,4-dichlorophenyl)-6,7-dihydro-5H-benzo[7]annulen-9-yl)phenoxy)-1-(3-fluoropropyl)pyrrolidine], for which the “% Degradation At 0.3 μM” value stood at 66%.
As for `Cl.O=C(O)c1ccc2c(c1)OCCC(c1ccc(Cl)cc1Cl)=C2c1cccc(O[C@@H]2CCN(CCCF)C2)c1` [Compound 35, (R)-4-(2,4-dichlorophenyl)-5-(3-((1-(3-fluoropropyl)pyrrolidin-3-yl)oxy)phenyl)-2,3-dihydrobenzo[b]oxepine-8-carboxylic acid hydrochloride], the “% Degradation At 0.3 μM” value is given as 65%.
`Cc1c(O[C@@H]2CCN(CCCF)C2)cccc1C1=C(c2ccccc2Cl)CCCc2cc(C(=O)O)ccc21` [Compound 16, (R)-8-(2-chlorophenyl)-9-(3-((1-(3-fluoropropyl)pyrrolidin-3-yl)oxy)-2-methylphenyl)-6,7-dihydro-5H-benzo[7]annulene-3-carboxylic acid]: the “% Degradation At 0.3 μM” value is given as 97%.
For the compound `Cl.O=C(O)c1ccc2c(c1)CCCC(c1ccc(Cl)cc1Cl)=C2c1cccc(O[C@@H]2CCN(CCCF)C2)c1F` [Compound 21, (R)-8-(2,4-dichlorophenyl)-9-(2-fluoro-3-((1-(3-fluoropropyl)pyrrolidin-3-yl)oxy)phenyl)-6,7-dihydro-5H-benzo[7]annulene-3-carboxylic acid, hydrochloride], the “% Degradation At 0.3 μM” value is 85%.
For `CC1(C)CCC(C2=C(c3cccc(O[C@@H]4CCN(CCCF)C4)c3)c3ccc(C(=O)O)cc3CCC2)CC1.Cl` [Compound 13, (R)-8-(4,4-dimethylcyclohexyl)-9-(3-((1-(3-fluoropropyl)pyrrolidin-3-yl)oxy)phenyl)-6,7-dihydro-5H-benzo[7]annulene-3-carboxylic acid, hydrochloride], the “% Degradation At 0.3 μM” value was 57%.
As to `Cc1cc(F)ccc1C1=C(c2cccc(O[C@@H]3CCN(CCCF)C3)c2C)c2ccc(C(=O)O)cc2CCC1` [Compound 18, (R)-8-(4-fluoro-2-methylphenyl)-9-(3-((1-(3-fluoropropyl)pyrrolidin-3-yl)oxy)-2-methylphenyl)-6,7-dihydro-5H-benzo[7]annulene-3-carboxylic acid], the “% Degradation At 0.3 μM” value is recorded as 78%.

Staying with this test, now noted: text statement on comparative compounds.
For the compound `O=C(O)c1ccc2c(c1)CCCC(c1ccccc1)=C2c1cccc(O[C@H]2CCN(CCCF)C2)c1` [Compound 2a, (S)-9-(3-((1-(3-fluoropropyl)pyrrolidin-3-yl)oxy)phenyl)-8-phenyl-6,7-dihydro-5H-benzo[7]annulene-3-carboxylic acid], the “degradation activity for estrogen receptors (in words)” value is “inactive”.
